Laboratory results published in US20080317700A1 (priority 2006, published 2008).

How the values were obtained:
[1] = Solubility (qualitative); assay type: physicochemical
[2] = test system: natural freshwater biofouling organisms (periphyton); test: Field trial: periphyton biofouling on coated tiles in artificial stream (chlorophyll extraction); settings: for Extracted chl (periphyton chl biomass) per tile: 459S2 coating with 0.15 M herbicide on ceramic tiles, 10 days in flow channels, bare tiles 11.1±2.87, blank resin 9.35±1.07
Method: Field tests were conducted during July and August, 2006 at the University of Michigan Biological Station Experimental Stream Laboratory located near Douglas Lake, Pellston, Mich. Resin 459S2 containing 0.15 M of a designated herbicide was coated on terracotta ceramic tiles (3×6 inches) pretreated with silanes for improved adhesion and photocured by an H-bulb system obtained from Fusion Inc. The coating thickness was 12.5 μm (0.5 mil). Bare tiles and tiles coated with 459S2 containing no additive were used as controls. Nine tiles for each series were placed into separate flow channels with a constant water flow of 3 L min^−1 for each channel. Each flow channel utilized water pumped from the East Branch of the Maple River containing natural freshwater biofouling organisms. Each flow channel was covered with a mesh screen to reduce direct light exposure and to ensure more favorable growth conditions. Tiles were left in the flow channels for 10 days.
Chlorophyll (chl) biomass attached to the surface of each tile was determined after the tiles had been washed three times with tap water to remove mud and other loosely attached species. The coated surface of the tile was submerged into a plastic vessel containing 25 mL of 90/10 acetone/saturated aqueous MgCl2. The container itself was placed into an ultrasonic bath and the entire system was sonicated for 30 seconds to facilitate chl extraction. The UV-vis spectrum of each extract was measured on a Shimadzu diode-array spectrophotometer using a 1 cm quartz cell. The amount of chl was determined using the following equation:^29
where Aλ1-λ2 is the difference in absorbance at two designated wavelengths and l is the spectroscopic cell pathlength. Two independent field trials were conducted.

[3] = test system: E. Coli; test: E. Coli agar experiments (colony count); assay type: cell-based; settings: M9 agar, 1 mM herbicide, 37° C., 24 hours; controls 36 colonies
Method: A M9 minimum medium containing 1.5 wt. % agar was prepared and sterilized at 121° C., 1.05 kg cm^−2 for 20 min. An aliquot of each tested herbicide solution was added to portions of the autoclaved agar to give a 1 mM final concentration of the herbicide. Twenty mL of the liquid agar was poured into a standard Petri dish and allowed to harden at room temperature. E. Coli cell suspensions were inoculated using a sterile inoculation loop and stored at 37° C. for 24 hours. Control and treated cultures were grown under the same conditions. In each experiment, the inhibition of growth in treated cultures was monitored relative to growth in control samples by manually counting the number of colonies.

[4] = test system: green algae CD 1 Red; test: organism not typed; assay type: cell-based
Method: After phototrophical propagation during the 5 days under cool fluorescence light (intensity 5000 lux), the average radii of inhibition zones were measured. Water soaked filter paper circles were used as controls. Experiments for each herbicide concentration were repeated 3 times.

[5] = test system: green algae CD 1 Red; test: Liquid culture growth inhibition (optical density), green algae; assay type: cell-based; settings: CD1 Red, BG-11 liquid medium, 1 mM herbicide, control 0.55
Method: (§1) Strains of green algae, cyanobacteria and E. Coli were used as test organisms. The green algae CD 1 Red and cyanobacteria Synechocystos 6803 were obtained from the collection of Prof. George Bullerjahn. Salt water strain of cyanobacteria Synechococcus 7002 was obtained from the collection of Prof. Michael McKay. E Coli DH 5α was obtained from Invitrogen Inc.
(§2) Green algae and cyanobacteria were propagated photoautotrophically in 250 mL Erlenmeyer flasks containing 100 mL of liquid BG-11 culture medium (see Supporting Information). The cultures were kept on a rotating shaker (100 rpm) at 25° C. for 4 days and continuously illuminated with cool-white fluorescent light with a constant light intensity of 5000 lux. The grown culture medium was sterilized in an autoclave at 121° C. and 1.05 kg cm^−2 pressure for 20 min. For the cell experiments, 20 mL aliquots of the BG-11 medium containing the green algal ([cells]initial=5.9×10^7 mL^−1) or cyanobacteria cells ([cells]initial=1.7×10^9 mL^−1) were placed in sterile 50 mL Erlenmeyer flasks. […] Cell counts were correlated with the absorbance and measured as a function of time using a Spectronic 20 Genesis spectrophotometer. […] In each experiment, the inhibition of cell growth in treated cultures was monitored spectrophotometrically and compared to the growth in control samples.

[6] = test system: cyanobacteria Synechocystos 6803; test: Liquid culture growth inhibition (optical density), fresh water cyanobacteria; assay type: cell-based; settings: Synechocystos 6803, BG-11 liquid medium, 1 mM herbicide, control 1.4
Method: as §1, §2

[7] = test system: Phaeodactylum tricornutum; test: Inhibition zones around polymer pellets, diatom Phaeodactylum; assay type: cell-based; settings: Phaeodactilum, pellet without herbicide 0
Method: Rectangular copolymer pellets (15×10×1.5 mm) were formed from a model acrylic resin (designated as 459S2) containing several epoxy acrylic oligomers (57%), acrylic monomeric diluents (43%) and a corresponding amount of herbicide. A designated quantity of herbicide was dispersed or partially dissolved in 459S2 resin using ultrasonication and heat (60° C., overnight). To each sample, 1.5% wt. of commercial photoinitiator (ITX), 5% of ODAB synergist and 0.1% co-photoinitiator (Irgacure 819) were added. Liquid formulations were poured into an open top Teflon mold and irradiated under N2 by a 395 nm LED light source for 5 min followed by pellet removal.
Two different diatom cultures, Phaeodactylum tricornutum and Navicula pelliculosa were used in the biological activity tests. […] Following propagation over 5 days under continuous cool fluorescent light (5000 lx), the average radii of inhibition zones were measured. Experiments for each herbicide concentration were repeated at least two times.

[8] = CD1 Red, herbicide concentration 0.3 mM, 5 days
[9] = CD1 Red, herbicide concentration 3 mM, 5 days
[10] = herbicide 0.1 M in 459S2 polymer pellet
[11] = herbicide 0.3 M in 459S2 polymer pellet

C=CC(=O)N(CC(=O)O)CP(=O)(O)O [AA, N-Acryloyl-N-(phosphonomethyl)glycine]
Solubility in organic solvents [1]: poorly soluble in most organic solvents
Solubility in water [1]: soluble in water
Extracted chl (periphyton chl biomass) per tile [2]: 7.92±1.12 μg tile^−1
Periphyton chl relative to tiles containing unfunctionalized glyphosate ([2]; 459S2 coating with 0.15 M herbicide, 10 days, unpaired two-tailed t-test, P<0.05): roughly one-third
Number of E. Coli colonies [3]: 6 colonies
zone of inhibition at 300000 µM ([4]; 120 h, read-out: Average radii of the inhibition zones): 10 mm
Average radii of the inhibition zones [4, 8]: No
Average radii of the inhibition zones [4, 9]: No
Average radii of the inhibition zones ([4]; CD1 Red, herbicide concentration 30 mM, 5 days): No
Optical Density at 680 nm after 7 days of media growth [5]: 0.02
Optical Density at 680 nm after 7 days of media growth [6]: 0.54
Diameter of Inhibition Zone (Bleaching indicates no growth detected on 100 mm plate) [7, 10]: 23 ± 2 mm
Diameter of Inhibition Zone (Bleaching indicates no growth detected on 100 mm plate) [7, 11]: Bleaching

O=C(O)CNCP(=O)(O)O [Glyphosate, N-(Phosphonomethyl)glycine, reference compound]
Solubility in organic solvents [1]: poor solubility in organic solvents
Extracted chl (periphyton chl biomass) per tile [2]: 11.9±2.56 μg tile^−1
Number of E. Coli colonies [3]: 11 colonies
zone of inhibition at 30000 µM ([4]; 120 h, CD1 Red, herbicide concentration 30 mM, 5 days, read-out: Average radii of the inhibition zones): 7.5 mm
Average radii of the inhibition zones [4, 8]: No
Average radii of the inhibition zones [4, 9]: No
Average radii of the inhibition zones ([4]; CD1 Red, herbicide concentration 300 mM, 5 days): Complete
Optical Density at 680 nm after 7 days of media growth [5]: 0.02
Optical Density at 680 nm after 7 days of media growth [6]: 0.58
Diameter of Inhibition Zone (Bleaching indicates no growth detected on 100 mm plate) [7, 10]: 17.5 ± 2 mm
Diameter of Inhibition Zone (Bleaching indicates no growth detected on 100 mm plate) [7, 11]: Bleaching
